Measurements taken from patent US7351531B2, “Molecules capable of binding to telomere and the like and method with the use of the same” (Japan Science and Technology Corporation, priority 2001, dated 2008).

Legend:
[1] = system: single-stranded human telomere sequence DNA (22-mer 5'-AGGGTTAGGGTTAGGGTTAGGG3'); assay: Binding titration with single-stranded human telomere sequence DNA (22-mer, FIG. 4)
Description: Samples of single-stranded human telomere sequence DNA were tested for the inhibition of DNA cleavage by DNase I (DNA hydrolase) through footprinting titration in the presence of a varying concentration of the compound of formula (III) (this is hereinafter referred to as naphthyridine dimer or simply as ND).
The test result in FIG. 4 is similar to that in FIG. 2. The vertical axis of FIG. 4 indicates the cleavage inhibition ratio derived from the cleavage band intensity. […] The horizontal axis of FIG. 4 indicates the ratio of the G-G mismatch concentration to the concentration (M) of the compound of formula (III) added to the test system, [GG]/[ND] in which ND means the compound of formula (III).
A solution of a 22-mer oligonucleotide having the following base sequence: • 5′-[…]3′ (SEQ ID NO: 9) in a sodium cacodylate buffer (10 mM, pH 7.0, NaCl 100mM) was heated at 70° C. for 5 minutes, and then gradually cooled so that the oligomer could form a quadraplex structure (see Structure, 263, 1 (1993)). A varying concentration of a naphthyridine dimer was dropwise added to the resulting solution, and the naphthyridine dimer-binding amount was obtained through 360 nm absorptiometry.

[2] = system: G-A mismatch base pair in 52-mer duplex DNA; assay: DNase I footprinting titration of 52-mer duplex DNA, G-A mismatch site; assay type: binding; design: effect of inhibiting G-A mismatch site cleavage: dose or concentration left out as unconfirmed
Description: (§1) A 5′-^32P-labeled 52-mer duplex DNA having a GC base pair, GA mismatch base pair and a GG mismatch base pair in the duplex DNA was prepared. The partial listing of the corresponding moieties is shown below.
(§2) The inventors have analyzed the duplex DNA through DNase I (DNA hydrolase) footprinting titration for the sites where the DNA cleavage by DNase I was inhibited in the presence of a varying concentration of the compound of formula (III).
(§3) The relationship between the cleavage band intensity and the naphthyridine concentration in FIG. 1 is plotted to give a graph as in FIG. 2. The vertical axis of FIG. 2 indicates the cleavage inhibition ratio derived from the cleavage band intensity. […] The horizontal axis of FIG. 2 indicates the concentration (M) of the compound of formula (III) added to the test system. In FIG. 2, the closed circles (●) indicate the G-G mismatch site, and the closed triangles (▴) indicate the G-A mismatch site.
(§4) ^32P-5′-end-labeled 52-mer DNA was hybridized into a duplex DNA with G-G and G-A mismatches (see the right side of FIG. 1).
(§5) A varying concentration of the compound obtained in Example 1 was added to the duplex DNA, and the DNA was analyzed through DNase I footprinting titration.
(§6) Concretely, the duplex DNA (<4 nM strand concentration) was incubated at 4° C. for 12 hours along with a varying concentration of the compound obtained in Example 1, in a tris-HCl buffer (10 mM, pH 7.6) that contains NaCl (100 mM) and MgCl2(5 mM). To this was added 0.2 U DNaseI (DNA hydrolase), and this was further incubated at 25° C. for 8 minutes. Next, this was precipitated in ethanol to recover the DNA, which was then subjected to electrophoresis with a gel that contains 12% polyacrylamide and 7 M urea.

[3] = system: G-G mismatch base pair in 52-mer duplex DNA; assay: DNase I footprinting titration of 52-mer duplex DNA, G-G mismatch site; assay type: binding
Description: as §1, §2, §3, §4, §5, §6

[4] = system: normal G-C base pair in 52-mer duplex DNA; assay: DNase I footprinting titration of 52-mer duplex DNA, normal G-C site; assay type: binding; conditions: concentration 0 to 500 μM, FIG. 1
Description: as §1, §2
In FIG. 1, the concentration of the compound of formula (III) varies from 0 to 500 μM from the left to the right. The sites cleaved with the DNase I (DNA hydrolase) are seen black, while those protected from cleavage with the DNase I are seen white.
as §4, §5
as §6, with “Next, this was precipitated in ethanol to recover the DNA, which was then subjected to electrophoresis with a gel that contains 12% polyacrylamide and 7 M urea.” left out

[5] = 52-mer duplex DNA, DNase I footprinting titration

## Cc1ccc2ccc(NC(=O)CCNCCC(=O)Nc3ccc4ccc(C)nc4n3)nc2n1 [compound of formula (III), dinaphthyridinamide]
[1]; 22-mer, sodium cacodylate buffer pH 7.0, NaCl 100 mM, Scatchard plot
  association constant to the G-G mismatch (Ka(GGmis)) in human telomere sequence: 420000 M⁻¹
[1]; FIG. 4
  concentration ratio [GG]/[ND] at which G-G mismatch site cleavage is almost completely inhibited: about 3
[1]; FIG. 4, relatively low concentration
  concentration ratio [GG]/[ND] at which compound is already effective for inhibiting cleavage of the G-G mismatch site: 0.5
[2]
  effect of inhibiting G-A mismatch site cleavage: about 90%
[2]; [5]
  association constant to the G-A mismatch (Ka(GAmis)): 16300 M⁻¹
[2]; FIG. 2
  concentration at which compound becomes effective for inhibiting cleavage of the G-A mismatch site: about 10^−6 M
[3]; [5]
  association constant to the G-G mismatch (Ka(GGmis)): 1.13e+07 M⁻¹
[3]; FIG. 2
  concentration at which G-G mismatch site cleavage by DNase I is almost completely inhibited: about 10^−5 M
[3]; G-G versus G-A mismatch, 52-mer duplex DNA
  ratio of the association constants (Ka(GGmis))/(Ka(GAmis)): 696
[4]
  protection of normal G-C base pair from DNase I cleavage: cleaved by DNase I
